Experimental data published in US5674875A, “Method of blocking human 5-hydroxytryptamine-2 receptors” (priority 1995, dated 1997).

Columns and labels:
[1] = molecular target: T1, cloned human 5-HT2 receptor (Homo sapiens, UniProt P28223); format: binding; conditions: cells containing cloned human 5-HT2 receptor; performed in triplicate
T1 construct: expressed in transfected cells

rat 5-HT2 receptor = molecular target: T2, rat 5-HT2 receptor (Rattus norvegicus, UniProt P14842); format: binding; conditions: brain tissue of male Sprague-Dawley rats; performed in triplicate
T2 construct: from tissue; host or cells: brain tissue of male Sprague-Dawley rats
Excerpt: This is quite surprising in light of the N-substituted ergolines having a much greater affinity for the 5-HT2 receptors in rats compared to the corresponding N-unsubstituted ergolines.

T1 sequence (P28223 whole entry): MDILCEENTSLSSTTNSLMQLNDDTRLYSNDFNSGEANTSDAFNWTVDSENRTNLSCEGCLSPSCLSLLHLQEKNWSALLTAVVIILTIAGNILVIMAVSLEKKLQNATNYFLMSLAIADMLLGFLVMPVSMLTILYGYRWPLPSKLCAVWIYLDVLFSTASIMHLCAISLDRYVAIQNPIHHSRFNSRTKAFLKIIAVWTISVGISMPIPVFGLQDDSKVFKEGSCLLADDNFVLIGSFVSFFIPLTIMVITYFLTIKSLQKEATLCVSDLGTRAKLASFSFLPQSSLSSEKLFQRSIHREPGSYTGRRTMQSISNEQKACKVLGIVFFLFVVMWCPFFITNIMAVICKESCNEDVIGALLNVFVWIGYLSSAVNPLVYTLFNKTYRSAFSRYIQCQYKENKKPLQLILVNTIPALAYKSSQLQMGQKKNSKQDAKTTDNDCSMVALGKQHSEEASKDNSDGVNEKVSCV
T2 sequence (P14842 whole entry): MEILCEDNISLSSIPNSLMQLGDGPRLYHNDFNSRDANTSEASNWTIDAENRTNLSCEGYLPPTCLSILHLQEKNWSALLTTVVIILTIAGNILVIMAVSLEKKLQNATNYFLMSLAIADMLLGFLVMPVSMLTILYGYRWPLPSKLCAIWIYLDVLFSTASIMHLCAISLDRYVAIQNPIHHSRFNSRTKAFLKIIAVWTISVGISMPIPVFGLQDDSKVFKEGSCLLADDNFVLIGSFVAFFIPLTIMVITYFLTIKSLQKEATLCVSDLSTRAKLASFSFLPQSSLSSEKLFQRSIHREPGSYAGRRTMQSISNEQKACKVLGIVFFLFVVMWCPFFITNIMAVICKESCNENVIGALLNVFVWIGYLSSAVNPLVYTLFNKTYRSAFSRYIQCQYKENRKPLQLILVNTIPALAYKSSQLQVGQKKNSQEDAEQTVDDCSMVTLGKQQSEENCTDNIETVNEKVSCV

How did the IC50 [1] turn out when `CC(C)n1cc2c3c(cccc31)C1CC(C(=O)NC3CC3O)CN(C)C1C2` (centres unmarked) [drawing 3 NH 2-hydroxycyclopropyl] was run?
The IC50 was 27.7 nM.

What about the IC50 (rat 5-HT2 receptor) of the same molecule?
Its IC50 is 5.8 nM.
